Experimental data from the NIST ThermoML archive (doi:10.1021/je900194v).
Where “and” joins values, the source holds several entries; their conditions need not be identical. Identical values can stand only once.

Legend:
[1] = 101 kPa, Liquid; for viscosity: Capillary tube (Ostwald / Ubbelohde) method; for mass density: Vibrating tube method
[2] = xn = mol fraction of the nth substance listed; details: 101 kPa, Liquid; for viscosity: Capillary tube (Ostwald / Ubbelohde) method; for mass density: Vibrating tube method

Cc1ccccc1C [1,2-dimethylbenzene]
[1]
Details | mass density [kg/m3] | viscosity [mPa·s]
298.15 K | 875.08 | 0.758
308.15 K | 866.62 | 0.665
318.15 K | 858.12 | 0.589

Cc1ccccc1C [1,2-dimethylbenzene] + COC(=O)CCCCl
[2], x2 = 0
Details | mass density [kg/m3] | viscosity [mPa·s]
298.15 K | 875.08 | 0.758
308.15 K | 866.62 | 0.665
318.15 K | 858.12 | 0.589

Cc1cccc(C)c1 [1,3-dimethylbenzene]
[1]
Details | mass density [kg/m3] | viscosity [mPa·s]
298.15 K | 859.83 | 0.587
308.15 K | 851.19 | 0.524
318.15 K | 842.49 | 0.471

Cc1cccc(C)c1 [1,3-dimethylbenzene] + COC(=O)CCCCl
[2], x2 = 0
Details | mass density [kg/m3] | viscosity [mPa·s]
298.15 K | 859.83 | 0.587
308.15 K | 851.19 | 0.524
318.15 K | 842.49 | 0.471

Cc1ccc(C)cc1 [1,4-dimethylbenzene]
[1]
Details | mass density [kg/m3] | viscosity [mPa·s]
298.15 K | 856.68 | 0.609
308.15 K | 847.96 | 0.541
318.15 K | 839.2 | 0.484

Cc1ccc(C)cc1 [1,4-dimethylbenzene] + COC(=O)CCCCl
[2], x2 = 0
Details | mass density [kg/m3] | viscosity [mPa·s]
298.15 K | 856.68 | 0.609
308.15 K | 847.96 | 0.541
318.15 K | 839.2 | 0.484

c1ccccc1 [benzene]
[1]
Details | mass density [kg/m3] | viscosity [mPa·s]
298.15 K | 873.61 | 0.603
308.15 K | 862.28 | 0.533
318.15 K | 852.08 | 0.466

c1ccccc1 [benzene] + COC(=O)CCCCl
[2], x2 = 0
Details | mass density [kg/m3] | viscosity [mPa·s]
298.15 K | 873.61 | 0.603
308.15 K | 862.28 | 0.533
318.15 K | 852.08 | 0.466

COC(=O)CCCCl [methyl 4-chlorobutanoate]
[1]
Details | mass density | viscosity [mPa·s]
298.15 K | 1116.24 kg/m3 | 1.519
308.15 K | 1105.22 kg/m3 and 1105.23 kg/m3 | 1.279
318.15 K | 1094.13 kg/m3 | 1.089

COC(=O)CCCCl [methyl 4-chlorobutanoate] + Cc1ccc(C)cc1
[2]
Details | mass density, 298.15 K [kg/m3] | mass density, 308.15 K [kg/m3] | mass density, 318.15 K [kg/m3] | viscosity, 298.15 K [mPa·s] | viscosity, 308.15 K [mPa·s] | viscosity, 318.15 K [mPa·s]
x1 = 0.0999 | 882.47 | 873.48 | 864.45 | 0.662 | 0.586 | 0.522
x1 = 0.2001 | 908.43 | 899.17 | 889.87 | 0.714 | 0.629 | 0.561
x1 = 0.3 | 934.33 | 924.84 | 915.3 | 0.775 | 0.679 | 0.6
x1 = 0.4001 | 960.27 | 950.54 | 940.77 | 0.847 | 0.738 | 0.651
x1 = 0.4999 | 986.16 | 976.2 | 966.2 | 0.927 | 0.806 | 0.705
x1 = 0.6 | 1012.09 | 1001.91 | 991.69 | 1.023 | 0.886 | 0.772
x1 = 0.7 | 1038.03 | 1027.62 | 1017.19 | 1.133 | 0.978 | 0.846
x1 = 0.8 | 1063.99 | 1053.37 | 1042.71 | 1.255 | 1.077 | 0.926
x1 = 0.9 | 1090.06 | 1079.25 | 1068.37 | 1.385 | 1.179 | 1.008
x1 = 1 | 1116.24 | 1105.23 | 1094.13 | 1.519 | 1.279 | 1.089

COC(=O)CCCCl [methyl 4-chlorobutanoate] + Cc1cccc(C)c1
[2]
Details | mass density, 298.15 K [kg/m3] | mass density, 308.15 K [kg/m3] | mass density, 318.15 K [kg/m3] | viscosity, 298.15 K [mPa·s] | viscosity, 308.15 K [mPa·s] | viscosity, 318.15 K [mPa·s]
x1 = 0.0999 | 885.23 | 876.33 | 867.38 | 0.639 | 0.571 | 0.512
x1 = 0.1999 | 910.66 | 901.49 | 892.27 | 0.7 | 0.624 | 0.55
x1 = 0.2999 | 936.14 | 926.72 | 917.26 | 0.769 | 0.674 | 0.596
x1 = 0.399 | 961.41 | 951.74 | 942.03 | 0.843 | 0.737 | 0.649
x1 = 0.4999 | 987.21 | 977.32 | 967.37 | 0.928 | 0.807 | 0.706
x1 = 0.5995 | 1012.73 | 1002.6 | 992.39 | 1.022 | 0.882 | 0.77
x1 = 0.6996 | 1038.43 | 1028.06 | 1017.63 | 1.128 | 0.966 | 0.839
x1 = 0.7992 | 1064.11 | 1053.51 | 1042.83 | 1.238 | 1.062 | 0.92
x1 = 0.8999 | 1090.15 | 1079.3 | 1068.38 | 1.368 | 1.163 | 1.004
x1 = 1 | 1116.24 | 1105.22 | 1094.13 | 1.519 | 1.279 | 1.089

COC(=O)CCCCl [methyl 4-chlorobutanoate] + Cc1ccccc1
[2]
Details | mass density, 298.15 K [kg/m3] | mass density, 308.15 K [kg/m3] | mass density, 318.15 K [kg/m3] | viscosity, 298.15 K [mPa·s] | viscosity, 308.15 K [mPa·s] | viscosity, 318.15 K [mPa·s]
x1 = 0.1 | 891.28 | 881.71 | 872.09 | 0.614 | 0.551 | 0.486
x1 = 0.2 | 919.47 | 909.69 | 899.87 | 0.68 | 0.599 | 0.53
x1 = 0.3 | 946.73 | 936.79 | 926.77 | 0.753 | 0.662 | 0.582
x1 = 0.4001 | 973.21 | 963.07 | 952.89 | 0.829 | 0.731 | 0.635
x1 = 0.5 | 998.81 | 988.49 | 978.14 | 0.919 | 0.796 | 0.7
x1 = 0.6 | 1023.69 | 1013.23 | 1002.74 | 1.021 | 0.883 | 0.767
x1 = 0.7 | 1047.84 | 1037.22 | 1026.57 | 1.123 | 0.962 | 0.831
x1 = 0.8 | 1071.31 | 1060.54 | 1049.74 | 1.246 | 1.062 | 0.913
x1 = 0.8998 | 1094.05 | 1083.16 | 1072.21 | 1.38 | 1.17 | 1.001
x1 = 1 | 1116.24 | 1105.22 | 1094.13 | 1.519 | 1.279 | 1.089

COC(=O)CCCCl [methyl 4-chlorobutanoate] + Cc1ccccc1C
[2]
Details | mass density, 298.15 K [kg/m3] | mass density, 308.15 K [kg/m3] | mass density, 318.15 K [kg/m3] | viscosity, 298.15 K [mPa·s] | viscosity, 308.15 K [mPa·s] | viscosity, 318.15 K [mPa·s]
x1 = 0.1 | 899.36 | 890.63 | 881.84 | 0.814 | 0.71 | 0.627
x1 = 0.2001 | 923.55 | 914.54 | 905.46 | 0.872 | 0.757 | 0.688
x1 = 0.3 | 947.67 | 938.39 | 929.03 | 0.935 | 0.808 | 0.707
x1 = 0.3998 | 971.75 | 962.19 | 952.59 | 1.001 | 0.863 | 0.752
x1 = 0.4992 | 995.83 | 985.99 | 976.14 | 1.074 | 0.92 | 0.8
x1 = 0.6 | 1020.27 | 1010.17 | 1000.07 | 1.153 | 0.983 | 0.855
x1 = 0.7 | 1044.53 | 1034.19 | 1023.83 | 1.235 | 1.05 | 0.907
x1 = 0.8 | 1068.71 | 1058.13 | 1047.53 | 1.322 | 1.12 | 0.965
x1 = 0.9 | 1092.68 | 1081.88 | 1071.02 | 1.415 | 1.194 | 1.025
x1 = 1 | 1116.24 | 1105.22 | 1094.13 | 1.519 | 1.279 | 1.089

COC(=O)CCCCl [methyl 4-chlorobutanoate] + c1ccccc1
[2]
Details | mass density, 298.15 K [kg/m3] | mass density, 308.15 K [kg/m3] | mass density, 318.15 K [kg/m3] | viscosity, 298.15 K [mPa·s] | viscosity, 308.15 K [mPa·s] | viscosity, 318.15 K [mPa·s]
x1 = 0.1 | 905.57 | 894.74 | 883.87 | 0.669 | 0.579 | 0.507
x1 = 0.2001 | 935.29 | 924.42 | 913.49 | 0.731 | 0.634 | 0.553
x1 = 0.3 | 962.99 | 952.12 | 941.13 | 0.799 | 0.69 | 0.601
x1 = 0.4001 | 989.08 | 978.2 | 967.18 | 0.875 | 0.754 | 0.661
x1 = 0.5 | 1013.66 | 1002.77 | 991.75 | 0.96 | 0.828 | 0.719
x1 = 0.5999 | 1036.89 | 1026.01 | 1014.99 | 1.054 | 0.907 | 0.785
x1 = 0.7 | 1058.82 | 1047.97 | 1036.94 | 1.157 | 0.99 | 0.853
x1 = 0.8 | 1079.42 | 1068.49 | 1057.55 | 1.271 | 1.08 | 0.927
x1 = 0.9 | 1098.6 | 1087.62 | 1076.65 | 1.391 | 1.18 | 1.007
x1 = 1 | 1116.24 | 1105.22 | 1094.13 | 1.519 | 1.279 | 1.089

Cc1ccccc1 [toluene]
[1]
Details | mass density [kg/m3] | viscosity [mPa·s]
298.15 K | 862.18 | –
308.15 K | 852.81 | 0.499
318.15 K | 843.4 | 0.446

Cc1ccccc1 [toluene] + COC(=O)CCCCl
[2], x2 = 0
Details | mass density [kg/m3] | viscosity [mPa·s]
298.15 K | 862.18 | 0.561
308.15 K | 852.81 | 0.499
318.15 K | 843.4 | 0.446
